Data on 14 compounds can be found in PubChem BioAssay (NCI).

As a reminder, the TGI is the concentration giving total growth inhibition. As a reminder, the GI50 is the concentration at which growth is held to half of that of the control.

Some test systems named below: A549 NSCLC; OVCAR-3 ovarian; HCT-116 colon; SNB-75 CNS; NCI-H460 lung; OVCAR-4 ovarian; HCT-15 colon; HL-60(TB) leukemia.
Test in all cases: DTP human tumour cell line panel, 48 h

Each structure is given as a SMILES string. ≈ marks a conversion by molar mass, not a printed value.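 A five-concentration, 48-hour dose response in 96-well plates underlies each endpoint, interpolated linearly between surrounding concentrations. GI50 is the concentration that inhibits growth by half. The concentration for full growth arrest is given as TGI.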 Some results are limits rather than exact numbers.

Consider `CN1C(c2ccccc2)CC(=Nc2ccccc2)CC1c1ccccc1` (stereo unspecified), for which the TGI with A549 NSCLC stood at 44.9 µM; with OVCAR-3 ovarian, 24 µM; in the test with HCT-116 colon, 16.4 µM; in the test with SNB-75 CNS it was 50.4 µM; in the test with NCI-H460 lung it was 33.9 µM; in the test with OVCAR-4 ovarian it was 31 µM. Further, the TGI in the test on HCT-15 colon is 29.9 µM; in the test on HL-60(TB) leukemia it was more than 100 µM.

As to `CCN=C1NN=C(c2ccccc2)c2cc(Cl)ccc2N1`, the TGI with A549 NSCLC was more than 100 µM; in the test on OVCAR-3 ovarian it was 43.7 µM; in the test on SNB-75 CNS it was 45.8 µM; with OVCAR-4 ovarian, more than 100 µM; in the test with HCT-15 colon it was 48.6 µM; in the test with HL-60(TB) leukemia it was 62.3 µM.

As for `CCOC(=O)/C(C#N)=C(O)/C(=C/c1ccccc1Cl)NC(=O)c1ccccc1`, the TGI in the test with A549 NSCLC, in the test with OVCAR-3 ovarian, with HCT-116 colon, in the test with SNB-75 CNS, in the test on NCI-H460 lung and in the test with OVCAR-4 ovarian was more than 100 µM each time. In addition, the TGI in the test on HCT-15 colon and in the test with HL-60(TB) leukemia was more than 100 µM in each case.

For `C/C(=N\NC(=S)N(C)C)c1ncc[nH]1`, the TGI is more than 100 µM in the test on A549 NSCLC; more than 100 µM in the test with OVCAR-3 ovarian; more than 100 µM in the test on HCT-116 colon; 85.9 µM with SNB-75 CNS; more than 100 µM in the test on NCI-H460 lung; more than 100 µM in the test on HCT-15 colon. In the test with HL-60(TB) leukemia, the concentration for total growth inhibition (TGI) stood at 5.87 µM.

As for `C/C(=N\NC(N)=S)c1ccc(/C(C)=N/NC(N)=S)cc1`, the total growth inhibition concentration (TGI) with A549 NSCLC, with OVCAR-3 ovarian, in the test with HCT-116 colon, with SNB-75 CNS, in the test on NCI-H460 lung and in the test on HCT-15 colon was more than 100 µM throughout. Besides, the TGI in the test on HL-60(TB) leukemia is more than 100 µM.

Regarding `N=C(c1ccccc1)N1CCCCC1`, the TGI in the test on A549 NSCLC, in the test with HCT-116 colon, in the test with SNB-75 CNS, in the test with NCI-H460 lung, with OVCAR-4 ovarian and in the test on HL-60(TB) leukemia was more than 100 µM in each case.

Consider `COc1cc2c(cc1OC)-c1c(cnn1C1OC(COC(C)=O)C(OC(C)=O)C(OC(C)=O)C1OC(C)=O)CC2` (stereo unspecified), for which the TGI was more than 100 µM in the test on A549 NSCLC; more than 100 µM in the test with OVCAR-3 ovarian; more than 100 µM in the test on HCT-116 colon; 98.2 µM in the test with SNB-75 CNS; more than 100 µM with NCI-H460 lung; more than 100 µM with OVCAR-4 ovarian. In the test on HCT-15 colon, the TGI is more than 100 µM.

With `C/C(=N\NC(N)=S)c1ccc2c(c1)OCO2`, the concentration for total growth inhibition (TGI) with A549 NSCLC, in the test with OVCAR-3 ovarian, in the test on HCT-116 colon, in the test on SNB-75 CNS, in the test with NCI-H460 lung and in the test on HCT-15 colon was more than 100 µM each time. For the same compound, the TGI in the test on HL-60(TB) leukemia is more than 100 µM.

Consider `CSC(=S)N(C)c1nc(=[N+](C)C)ss1`, for which the total growth inhibition concentration (TGI) in the test with A549 NSCLC, in the test on HCT-116 colon, in the test on SNB-75 CNS, in the test on NCI-H460 lung, in the test on OVCAR-4 ovarian and in the test on HCT-15 colon was more than 100 µM in each case. In the test with HL-60(TB) leukemia, this compound registered a total growth inhibition concentration (TGI) of more than 100 µM.

Regarding `Cc1cc2c(cn1)C(=O)OCC2`, the concentration for total growth inhibition (TGI) with A549 NSCLC, with OVCAR-3 ovarian, with HCT-116 colon, with SNB-75 CNS, in the test on NCI-H460 lung and in the test on OVCAR-4 ovarian was more than 100 µM throughout. Besides, in the test with HL-60(TB) leukemia, the TGI is more than 100 µM.

Consider `COc1ccc(C2(CN(C)C)COc3cc(OC)c(OC)cc3C2=O)cc1OC` (stereo unspecified), for which the TGI is more than 100 µM in the test with A549 NSCLC; more than 100 µM in the test with OVCAR-3 ovarian; 30.3 µM in the test on HCT-116 colon; more than 100 µM in the test with SNB-75 CNS; more than 100 µM in the test with NCI-H460 lung; more than 100 µM in the test on OVCAR-4 ovarian. Also, the TGI in the test on HL-60(TB) leukemia is 48.2 µM.

As for `OCCN(CO)CN(CN(CO)CCO)c1nc(N(CN(CO)CCO)CN(CO)CCO)nc(N(CN(CO)CCO)CN(CO)CCO)n1`, the GI50 with A549 NSCLC is 1.81 ng/mL (≈ 2.43 nM); with SNB-75 CNS it was 0.723 ng/mL (≈ 0.971 nM); with NCI-H460 lung, 1.17 ng/mL (≈ 1.57 nM); with OVCAR-4 ovarian, 1.7 ng/mL (≈ 2.28 nM); with HL-60(TB) leukemia, 0.55 ng/mL (≈ 0.738 nM). Further, the TGI with A549 NSCLC stood at 131 ng/mL; with SNB-75 CNS, 2.41 ng/mL; with NCI-H460 lung it was 2.53 ng/mL; with OVCAR-4 ovarian it was 4.8 ng/mL; in the test on HL-60(TB) leukemia, 0.859 ng/mL.

With `CCCOc1ccc(/C=C/c2cc(OC)c(OC)c(OC)c2)cc1`, the TGI with A549 NSCLC is more than 100 µM; with HCT-116 colon it was more than 33.3 µM; in the test with SNB-75 CNS it was 0.603 µM; in the test with NCI-H460 lung, more than 32.4 µM; in the test on OVCAR-4 ovarian, more than 72.9 µM; in the test on HCT-15 colon, 15.1 µM. Moreover, the total growth inhibition concentration (TGI) in the test with HL-60(TB) leukemia was 1.16 µM.

Consider `O=C(CC(=O)Nc1ccc(Cl)cc1)NNCC(=O)Nc1nc(-c2ccccc2)cs1`, for which the TGI in the test on A549 NSCLC, in the test on OVCAR-3 ovarian, in the test on HCT-116 colon, in the test on SNB-75 CNS, in the test with NCI-H460 lung and in the test with OVCAR-4 ovarian was more than 100 µM in each case. For the same compound, the TGI in the test on HL-60(TB) leukemia was more than 100 µM.
